The values below come from patent US20250026721A1, “COMPOUNDS AND METHODS FOR MODULATING RAS-PI3K” (Vividion Therapeutics, Inc., priority 2023, published 2025).

In the assay the target is T1, PIK3CA (Homo sapiens, UniProt P42336).
T1 construct: endogenous in cells; host or cells: Jurkat cell lysate
As to the kind of experiment: In vitro ELISA target engagement assay for PIK3CA in Jurkat cellular lysate (competition with PIK3CA Biotin Probe). Format: binding. Conditions: 1 hour at rt, then 500 nM PIK3CA Biotin Probe, read-out: Elisa Target Engagement Assay (TE50). An outline of the steps: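 Competition format in Jurkat lysate: compound (serial dilutions, top 200 μM) for 1 h at rt, then 500 nM final biotinylated PIK3CA probe for 1 h at rt. Sandwich ELISA with capture antibody and Neutravidin-HRP luminescence read-out measured probe-labelled PIK3CA, giving TE50.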
In general terms: ELISA stands for enzyme-linked immunosorbent assay.

T1 sequence (P42336 whole entry): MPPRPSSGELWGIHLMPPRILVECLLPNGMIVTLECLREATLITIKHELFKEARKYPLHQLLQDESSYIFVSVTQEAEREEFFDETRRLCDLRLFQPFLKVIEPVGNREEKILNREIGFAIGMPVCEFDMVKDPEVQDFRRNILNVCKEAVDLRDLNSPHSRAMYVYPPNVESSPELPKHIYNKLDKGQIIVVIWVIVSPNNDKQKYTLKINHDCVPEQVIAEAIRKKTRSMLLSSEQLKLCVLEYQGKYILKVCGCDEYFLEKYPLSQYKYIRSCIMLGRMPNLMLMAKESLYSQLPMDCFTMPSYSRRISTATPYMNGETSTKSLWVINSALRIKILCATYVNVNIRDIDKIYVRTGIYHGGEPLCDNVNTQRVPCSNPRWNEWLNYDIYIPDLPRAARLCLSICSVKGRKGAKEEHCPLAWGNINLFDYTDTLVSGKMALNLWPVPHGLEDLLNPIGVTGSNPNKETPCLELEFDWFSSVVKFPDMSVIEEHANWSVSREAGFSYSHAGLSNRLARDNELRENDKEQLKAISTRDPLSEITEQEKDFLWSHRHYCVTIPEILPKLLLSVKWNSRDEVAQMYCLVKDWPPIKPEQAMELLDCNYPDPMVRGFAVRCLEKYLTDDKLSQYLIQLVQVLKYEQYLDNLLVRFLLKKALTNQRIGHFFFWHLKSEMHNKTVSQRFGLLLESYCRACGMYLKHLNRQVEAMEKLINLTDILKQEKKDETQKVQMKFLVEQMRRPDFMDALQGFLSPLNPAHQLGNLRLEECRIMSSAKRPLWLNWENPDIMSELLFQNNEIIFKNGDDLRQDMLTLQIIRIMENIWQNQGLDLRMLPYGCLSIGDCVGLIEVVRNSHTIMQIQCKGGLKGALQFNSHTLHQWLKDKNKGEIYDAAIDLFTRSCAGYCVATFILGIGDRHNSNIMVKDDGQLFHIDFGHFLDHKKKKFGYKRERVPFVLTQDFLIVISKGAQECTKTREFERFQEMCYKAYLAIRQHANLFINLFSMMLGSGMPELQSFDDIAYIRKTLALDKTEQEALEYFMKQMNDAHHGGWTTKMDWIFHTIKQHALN
T1 sequence (P27986 whole entry partner): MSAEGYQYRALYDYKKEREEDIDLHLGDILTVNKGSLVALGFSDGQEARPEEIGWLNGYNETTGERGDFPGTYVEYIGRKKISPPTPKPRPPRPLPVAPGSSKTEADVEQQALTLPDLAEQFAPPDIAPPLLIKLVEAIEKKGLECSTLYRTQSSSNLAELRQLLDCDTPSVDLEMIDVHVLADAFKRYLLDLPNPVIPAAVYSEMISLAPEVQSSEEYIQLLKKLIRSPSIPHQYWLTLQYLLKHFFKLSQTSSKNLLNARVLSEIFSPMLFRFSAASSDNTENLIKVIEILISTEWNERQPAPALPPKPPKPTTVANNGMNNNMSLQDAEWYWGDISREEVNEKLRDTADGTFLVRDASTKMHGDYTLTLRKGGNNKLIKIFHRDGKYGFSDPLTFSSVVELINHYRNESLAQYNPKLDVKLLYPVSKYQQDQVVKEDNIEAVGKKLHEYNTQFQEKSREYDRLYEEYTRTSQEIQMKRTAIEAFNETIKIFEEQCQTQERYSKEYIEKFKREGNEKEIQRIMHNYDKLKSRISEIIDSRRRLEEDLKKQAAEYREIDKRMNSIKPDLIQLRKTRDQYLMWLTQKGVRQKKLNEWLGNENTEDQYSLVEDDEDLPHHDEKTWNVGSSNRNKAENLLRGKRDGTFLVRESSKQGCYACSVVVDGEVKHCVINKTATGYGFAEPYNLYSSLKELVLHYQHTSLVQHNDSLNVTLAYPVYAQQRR

Take `COc1ccc(S(=O)(=O)N2CCC(F)(C(=O)N[C@H](C)C3=CS(=O)(=O)C3)CC2)c(-c2ccccc2Cl)c1` [Compound 235, (R)-1-((2′-chloro-5-methoxy-[1,1′-biphenyl]-2-yl)sulfonyl)-N-(1-(1,1-dioxido-2H-thiet-3-yl)ethyl)-4-fluoropiperidine-4-carboxamide]: the IC50 amounted to 370 nM. Under `CCC(F)(F)CN1C[C@H](C(=O)N2CCC(F)(C(=O)N[C@H](C)/C=C\S(C)(=O)=O)CC2)[C@H](c2ccccc2Cl)C1` [Compound 178, 1-((3R,4R)-4-(2-chlorophenyl)-1-(2,2-difluorobutyl)pyrrolidine-3-carbonyl)-4-fluoro-N-((R,Z)-4-(methylsulfonyl)but-3-en-2-yl)piperidine-4-carboxamide] stands 540 nM. Under `Cc1cccc(-c2cc(Br)ccc2S(=O)(=O)N2CCC(F)(C(=O)N[C@H](C)/C=C\S(C)(=O)=O)CC2)c1Cl` [Compound 59, (R,Z)-1-((5-bromo-2′-chloro-3′-methyl-[1,1′-biphenyl]-2-yl)sulfonyl)-4-fluoro-N-(4-(methylsulfonyl)but-3-en-2-yl)piperidine-4-carboxamide] stands 710 nM.

For `C[C@H](/C=C/C(=O)N1CC(F)(F)C1)NC(=O)[C@]1(F)CCN(S(=O)(=O)c2ccc(C#N)cc2-c2ccccc2Cl)[C@H](C)C1` [Compound 154, (2R,4S)-1-((2′-chloro-5-cyano-[1,1′-biphenyl]-2-yl)sulfonyl)-N-((R,E)-5-(3,3-difluoroazetidin-1-yl)-5-oxopent-3-en-2-yl)-4-fluoro-2-methylpiperidine-4-carboxamide], the IC50 was 190 nM. Under `COC1(C(=O)N[C@H](C)/C=C\S(C)(=O)=O)CCN(S(=O)(=O)c2ccc(Br)cc2-c2ccccc2Cl)CC1` [Compound 133, (R,Z)-1-((5-bromo-2′-chloro-[1,1′-biphenyl]-2-yl)sulfonyl)-4-methoxy-N-(4-(methylsulfonyl)but-3-en-2-yl)piperidine-4-carboxamide] stands 220 nM; under `C[C@H](/C=C\S(C)(=O)=O)NC(=O)C1(F)CCN(C(=O)[C@H]2CN(C(=O)c3ccccc3)C[C@H]2c2ccccc2Cl)CC1` [Compound 162, 1-((3R,4R)-1-benzoyl-4-(2-chlorophenyl)pyrrolidine-3-carbonyl)-4-fluoro-N-((R,Z)-4-(methylsulfonyl)but-3-en-2-yl)piperidine-4-carboxamide], 770 nM. Under `C[C@H](/C=C\S(C)(=O)=O)NC(=O)C1(F)CCN(C(=O)[C@H]2CN(CC(F)(F)c3ccccc3)C[C@H]2c2ccccc2Cl)CC1` [Compound 181, 1-((3R,4R)-4-(2-chlorophenyl)-1-(2,2-difluoro-2-phenylethyl)pyrrolidine-3-carbonyl)-4-fluoro-N-((R,Z)-4-(methylsulfonyl)but-3-en-2-yl)piperidine-4-carboxamide] stands 700 nM. Under `C[C@H](/C=C\S(C)(=N)=O)NC(=O)C1(F)CCN(S(=O)(=O)c2ccc(Br)cc2-c2ccccc2Cl)CC1` (mixture of isomers) [Compound 73, 1-((5-bromo-2′-chloro-[1,1′-biphenyl]-2-yl)sulfonyl)-4-fluoro-N-((2R,Z)-4-(S-methylsulfonimidoyl)but-3-en-2-yl)piperidine-4-carboxamide] stands 304 nM; under `C[C@H](/C=C\S(C)(=O)=O)NC(=O)C1(F)CCN(S(=O)(=O)c2ccc(Cl)cc2-c2ccccc2Cl)CC1` [Compound 23, (R,Z)-1-((2′,5-dichloro-[1,1′-biphenyl]-2-yl)sulfonyl)-4-fluoro-N-(4-(methylsulfonyl)but-3-en-2-yl)piperidine-4-carboxamide], 91 nM; under `C[C@@H](/C=C\S(C)(=O)=O)NC(=O)C1(F)CCN(S(=O)(=O)c2ccc(C(F)(F)F)cc2-c2ccccc2Cl)CC1` [Compound 18, (S,Z)-1-((2′-chloro-5-(trifluoromethyl)-[1,1′-biphenyl]-2-yl)sulfonyl)-4-fluoro-N-(4-(methylsulfonyl)but-3-en-2-yl)piperidine-4-carboxamide], 38 nM.
